# According to US20190263799A1, “1H-IMIDAZO[4,5-B]PYRIDINYL AND 2-OXO-2,3-DIHYDRO-1H-IMIDAZO[4,5-B]PYRIDINYL HETEROCYCLIC BET BROMODOMAIN INHIBITORS” (ZENITH EPIGENETICS LTD., priority 2015, published 2019):
# pIC50: −log10 of the molar value. Like-named read-outs stand apart in the source and are kept apart here.
# Key:
# BRD4(1) = target: T1, BRD4(1) (Homo sapiens, UniProt O60885); assay: Inhibition of tetra-acetylated histone H4 binding to individual BET bromodomains (AlphaScreen); conditions: His-tagged BRD4(1) 20 nM, biotinylated tetra-acetylated histone H4 peptide, 30 min incubation; read-out: FRET activity BRD4(1)
# T1 construct: N-terminally His-tagged bromodomains (BRD4(1) at 20 nM and BRD4(2) at 100 nM); made in house; host or cells: E. coli BL21(DE3)
# Experimental: Proteins were cloned and overexpressed with a N-terminal 6×His tag, then purified by nickel affinity followed by size exclusion chromatography. Briefly, E. coli BL21(DE3) cells were transformed with a recombinant expression vector encoding N-terminally Nickel affinity tagged bromodomains from Brd2, Brd3, Brd4. Cell cultures were incubated at 37° C. with shaking to the appropriate density and induced overnight with IPTG. The supernatant of lysed cells was loaded onto Ni-IDA column for purification. Eluted protein was pooled, concentrated and further purified by size exclusion chromatography. Fractions representing monomeric protein were pooled, concentrated, aliquoted, and frozen at −80° C. for use in subsequent experiments.
# Binding of tetra-acetylated histone H4 peptide (Millipore) and BET bromodomains was confirmed by Amplified Luminescent Proximity Homogenous Assay (AlphaScreen). N-terminally His-tagged bromodomains (BRD4(1) at 20 nM and BRD4(2) at 100 nM) and biotinylated tetra-acetylated histone H4 (10-25 nM) were incubated in the presence of nickel chelate acceptor beads and streptavidin donor beads (PerkinAlmer, 6760000K) added to a final concentration of 2 μg/mL under green light in a white 96 well microtiter plate (Greiner). For inhibition assays, serially diluted compounds were added to the reaction mixtures in a 0.1% final concentrations of DMSO. Final buffer concentrations were 50 mM HEPES, 100 mM NaCl and 0.1% BSA buffer, pH 7.4 and optimized to 30 min incubation time. Assay plates were read at 570 nm on a Synergy H4 Plate Reader (Biotek). IC50 values were determined from a dose response curve.
# cMYC = assay: Inhibition of cMYC expression in cancer cell lines (MV4-11, real-time PCR); assay type: cell-based; conditions: Homo sapiens, read-out: Myc activity
# Experimental: MV4-11 cells (CRL-9591) were plated at a density of 2.5×10^4 cells per well in 96 well U-bottom plates and treated with increasing concentrations of test compound or DMSO (0.1%) in IMDM media containing 10% FBS and penicillin/streptomycin, and incubated for 3 h at 37° C. Triplicate wells were used for each concentration. Cells were pelleted by centrifugation and harvested using the mRNA Catcher PLUS kit according to manufacturer's instructions. The eluted mRNA isolated was then used in a one-step quantitative real-time PCR reaction, using components of the RNA UltraSense™ One-Step Kit (Life Technologies) together with Applied Biosystems TaqMan® primer-probes for cMYC and Cyclophilin. Real-time PCR plates were run on a ViiA™7 real time PCR machine (Applied Biosystems), data were analyzed, normalizing the Ct values for cMYC to an internal control, prior to determining the fold expression of each sample, relative to the control.
# MV4-11 cells = assay: Inhibition of cell proliferation in cancer cell lines (MV4-11, CellTiter Aqueous One); assay type: cell-based; conditions: Homo sapiens, read-out: Proliferation activity
# Experimental: MV4-11 cells (CRL-9591) were plated at a density of 5×10^4 cells per well in 96 well flat bottom plates and treated with increasing concentrations of test compound or DMSO (0.1%) in IMDM media containing 10% FBS and penicillin/streptomycin. Triplicate wells were used for each concentration and a well containing only media was used as a control. Plates were incubated at 37° C., 5% CO2 for 72 h before adding 20 μL of the CellTiter Aqueous One Solution (Promega) to each well and incubating at 37° C., 5% CO2 for an additional 3-4 h. The absorbance was read at 490 nm in a spectrophotometer and the percentage of cell titer relative to DMSO-treated cells was calculated after correcting for background by subtracting the blank well's signal. IC50 values were calculated using the GraphPad Prism software.
# [1] = MV4-11 cells, 3 h incubation, cMYC mRNA
SMILES,pIC50 (BRD4(1)),pIC50 (cMYC; [1]),"pIC50 (MV4-11 cells; MV4-11 cells, 72 h incubation)","pIC50 (cMYC; MV4-11, 3 h)","pIC50 (MV4-11 cells; MV4-11, 72 h)"
"CN(C(=O)CO)c1cnc2nc(N3CCCC3)n(Cc3ccccc3)c2c1 [Example 32, N-(1-Benzyl-2-(pyrrolidin-1-yl)-1H-imidazo[4,5-b]pyridin-6-yl)-2-hydroxy-N-methylacetamide]",5.52 to 6.52,4.52 to 5.52,4.52 to 5.52,–,–
"C=CC(=O)N(C)c1cnc2nc(N3CCCCC3)n(Cc3ccccc3)c2c1 [Example 23, N-(1-Benzyl-2-(piperidin-1-yl)-1H-imidazo[4,5-b]pyridin-6-yl)-N methylacrylamide]",5.52 to 6.52,5.52 to 6.52,4.52 to 5.52,–,–
"COC(=O)N(C)c1cnc2nc(N3CCCC3)n(Cc3ccccc3)c2c1 [Example 30, Methyl (1-benzyl-2-(pyrrolidin-1-yl)-1H-imidazo[4,5-b]pyridin-6-yl)(methyl) carbamate]",≥ 6.52,–,–,5.52 to 6.52,5.52 to 6.52
"C=CC(=O)N(C)c1cnc2nc(N3CC(O)C3)n(Cc3ccccc3)c2c1 [Example 42, N-(1-Benzyl-2-(3-hydroxyazetidin-1-yl)-1H-imidazo[4,5-b]pyridin-6-yl)-N-methylacrylamide]",≥ 6.52,–,–,4.52 to 5.52,4.52 to 5.52
"CCOC(=O)N(C)c1cnc2nc(N3CCCC3)n(Cc3ccccc3)c2c1 [Example 36, Ethyl (1-benzyl-2-(pyrrolidin-1-yl)-1H-imidazo[4,5-b]pyridin-6-yl)(methyl)carbamate]",≥ 6.52,–,–,5.52 to 6.52,5.52 to 6.52
"C=CC(=O)N(C)c1cnc2nc(N3CC[C@@H](O)C3)n(Cc3ccccc3)c2c1 [Example 41, (R)—N-(1-Benzyl-2-(3-hydroxypyrrolidin-1-yl)-1H-imidazo[4,5-b]pyridin-6-yl)-N-methylacrylamide]",≥ 6.52,–,–,4.52 to 5.52,4.52 to 5.52
"CN(C)C(=O)N(C)c1cnc2nc(N3CCCC3)n(Cc3ccccc3)c2c1 [Example 35, 1-(1-Benzyl-2-(pyrrolidin-1-yl)-1H-imidazo[4,5-b]pyridin-6-yl)-1,3,3-trimethylurea]",5.52 to 6.52,–,–,4.52 to 5.52,4.52 to 5.52
"C=CC(=O)N(C)c1cnc2nc(N3CC[C@H](N(C)C)C3)n(Cc3ccccc3)c2c1 [Example 38, (S)—N-(1-Benzyl-2-(3-(dimethylamino)pyrrolidin-1-yl)-1H-imidazo[4,5-b]pyridin-6-yl)-N-methylacrylamide]",≥ 6.52,5.52 to 6.52,5.52 to 6.52,–,–
"C=CC(=O)N(C)c1cnc2nc(N3CCOCC3)n(Cc3ccccc3)c2c1 [Example 16, N-(1-Benzyl-2-morpholino-1H-imidazo[4,5-b]pyridin-6-yl)-N-methylacrylamide]",≥ 6.52,4.52 to 5.52,4.52 to 5.52,–,–
"CC(=O)N(C)c1cnc2c(c1)n(Cc1ccccc1)c(=O)n2C [Example 11, N-(1-Benzyl-3-methyl-2-oxo-2,3-dihydro-1H-imidazo[4,5-b]pyridin-6-yl)-N-methylacetamide]",≥ 6.52,4.52 to 5.52,4.52 to 5.52,–,–

# Now from value to molecule, other results behind:
pIC50 (BRD4(1)),pIC50 (cMYC; [1]),"pIC50 (MV4-11 cells; MV4-11 cells, 72 h incubation)",SMILES,"pIC50 (cMYC; MV4-11, 3 h)","pIC50 (MV4-11 cells; MV4-11, 72 h)"
≥ 6.52,5.52 to 6.52,5.52 to 6.52,"C[C@H](O)C(=O)N(C)c1cnc2nc(N3CCCC3)n(Cc3ccccc3)c2c1 [Example 34, (S)—N-(1-Benzyl-2-(pyrrolidin-1-yl)-1H-imidazo[4,5-b]pyridin-6-yl)-2-hydroxy-N-methylpropanamide]",–,–
≥ 6.52,5.52 to 6.52,5.52 to 6.52,"C=CC(=O)N(C)c1cnc2nc(NC)n(Cc3ccccc3)c2c1 [Example 21, N-(1-Benzyl-2-(methylamino)-1H-imidazo[4,5-b]pyridin-6-yl)-N-methylacrylamide]",–,–
≥ 6.52,5.52 to 6.52,5.52 to 6.52,"CN(C(=O)C1CC1)c1cnc2nc(N3CCCC3)n(Cc3ccccc3)c2c1 [Example 29, N-(1-Benzyl-2-(pyrrolidin-1-yl)-1H-imidazo[4,5-b]pyridin-6-yl)-N-methylcyclopropanecarboxamide]",–,–
≥ 6.52,5.52 to 6.52,4.52 to 5.52,"C=CC(=O)N(C)c1cnc2nc(N3CC(N(C)C)C3)n(Cc3ccccc3)c2c1 [Example 47, N-(1-Benzyl-2-(3-(dimethylamino)azetidin-1-yl)-1H-imidazo[4,5-b]pyridin-6-yl)-N-methylacrylamide]",–,–
≥ 6.52,5.52 to 6.52,4.52 to 5.52,"C=CC(=O)N(C)c1cnc2nc(C)n(Cc3ccccc3)c2c1 [Example 4, N-(1-Benzyl-2-methyl-1H-imidazo[4,5-b]pyridin-6-yl)-N-methylacrylamide]",–,–
≥ 6.52,4.52 to 5.52,4.52 to 5.52,"C=CC(=O)N(C)c1cnc2nc(N3CC[C@H](NC(C)=O)C3)n(Cc3ccccc3)c2c1 [Example 43, (S)—N-(2-(3-Acetamidopyrrolidin-1-yl)-1-benzyl-1H-imidazo[4,5-b]pyridin-6-yl)-N-methylacrylamide]",–,–
≥ 6.52,> 6.52,5.52 to 6.52,"C=CC(=O)N(C)c1cnc2nc(N3CC[C@H](CO)C3)n(Cc3ccccc3)c2c1 [Example 25, (S)—N-(1-Benzyl-2-(3-(hydroxymethyl)pyrrolidin-1-yl)-1H-imidazo[4,5-b]pyridin-6-yl)-N-methylacrylamide]",–,–
≥ 6.52,5.52 to 6.52,4.52 to 5.52,"C=CC(=O)N(C)c1cnc2nc(N(C)C)n(Cc3ccccc3)c2c1 [Example 19, N-(1-Benzyl-2-(dimethylamino)-1H-imidazo[4,5-b]pyridin-6-yl)-N-methylacrylamide]",–,–
